Laboratory results taken from patent publication US10954217B2 (priority 2016, dated 2021).

Tests used:
Test in all cases: biochemical
D3 = D3 (Homo sapiens (Human), UniProt P35462)
D4 = D4 (Homo sapiens (Human), UniProt P21917)
H1 = H1 (Homo sapiens (Human), UniProt P35367)
M4 = M4 (Homo sapiens (Human), UniProt P08173)
M3 = M3 (Homo sapiens (Human), UniProt P20309)
Alpha1B = Alpha1B (Homo sapiens (Human), UniProt P35368)
Alpha2C = Alpha2C (Homo sapiens (Human), UniProt P18825)
5-HT2A = 5-HT2A (Homo sapiens (Human), UniProt P28223)
M2 = M2 (Homo sapiens (Human), UniProt P08172)
M5 = M5 (Homo sapiens (Human), UniProt P08912)
5-HT2C = 5-HT2C (Homo sapiens (Human), UniProt P28335)
KOR = KOR (Homo sapiens (Human), UniProt P41145)
Alpha1D = Alpha1D (Homo sapiens (Human), UniProt P25100)
5-HT2B = 5-HT2B (Homo sapiens (Human), UniProt P41595)
Alpha2B = Alpha2B (Homo sapiens (Human), UniProt P18089)
H2 = H2 (Homo sapiens (Human), UniProt P25021)
Alpha2A = Alpha2A (Homo sapiens (Human), UniProt P08913)

Row | Ki (D3) | Ki (D4) | Ki (H1) | Ki (M4) | Ki (M3) | Ki (Alpha1B) | Ki (Alpha2C) | Ki (5-HT2A) | Ki (M2) | Ki (M5) | Ki (5-HT2C) | Ki (KOR) | Ki (Alpha1D) | Ki (5-HT2B) | Ki (Alpha2B) | Ki (H2) | Ki (Alpha2A) | SMILES
1 | 3230 nM | 973 nM | 1330 nM | – | – | – | – | – | – | – | – | – | – | – | – | – | – | Clc1cc(Cl)cc(CN2CCc3ccc(N4CCOCC4)cc3C2)c1
2 | 220 nM | – | – | 1890 nM | 710 nM | 1390 nM | 168 nM | 513 nM | 4.2 µM | 1290 nM | – | – | – | – | – | – | – | C=CCN1CCN(c2ccc3c(c2)CN(S(=O)(=O)c2cc(Cl)cc(Cl)c2)C3)CC1
3 | 599 nM | – | 487 nM | 3510 nM | 1960 nM | – | – | 520 nM | 3.89 µM | 2090 nM | 833 nM | 8490 nM | 6.47 µM | – | – | – | – | CN1CCN(c2ccc3c(c2)CN(S(=O)(=O)c2cc(Cl)cc(Cl)c2)C3)CC1
4 | 107 nM | – | 241 nM | – | 1950 nM | – | – | – | – | 3580 nM | – | 2200 nM | 3.5 µM | 397 nM | – | – | – | C=CCN1CCN(c2ccc3c(c2)CN(S(=O)(=O)c2cc(Cl)cc(Cl)c2)CC3)CC1
5 | – | – | – | – | – | – | 4540 nM | – | – | – | 1380 nM | – | – | 702 nM | 6.8 µM | 1180 nM | 2340 nM | Clc1cc(Cl)cc(CN2Cc3ccc(N4CCOCC4)cc3C2)c1
6 | 271 nM | – | 4780 nM | 2280 nM | 2020 nM | – | – | – | 1.65 µM | 2320 nM | 1080 nM | 2560 nM | – | 206 nM | – | – | – | CN1CCN(c2ccc3c(c2)CN(S(=O)(=O)c2cc(Cl)cc(Cl)c2)CC3)CC1
